Where two headings read alike, the source gives them in different places.
Legend:
[1] = test system: HCV replicon cells (wild-type clone 24-2, Huh-7); assay: 2-day Replicon assay with bDNA quantitation, checkerboard combination (Bliss independence / MacSynergy); type: cell-based; conditions: Hepatitis C virus, Huh-7, 48 h, polymerase inhibitor in the checkerboard experiment with VX-950, read-out: Polymerase Inhibitor IC50
Method: Huh-7 cells were propagated in Dulbecco's modified Eagle's medium (DMEM, JRH Biosciences, Lenexa, Kans.) supplemented with 10% heat-inactivated FBS (fetal bovine serum), 2 mM L-glutamine, and nonessential amino acids (JRH). The cells were transfected with an in vitro transcribed HCV replicon RNA identical to replicon 1377neo/NS3-3′/wt as described by Lohmann et al. (1999). Stable cell clones were selected and maintained in the presence of 250 μg/mL G418 (Invitrogen, Carlsbad, Calif.). One of the clones, 24-2, was used as the wild-type in the subsequent HCV replicon assays for combination studies. The HCV NS3 protease variant replicons were constructed in the background of the mADE wild-type replicon as described previously [Chao Lin et al., “In Vitro Resistance Studies of Hepatitis C Virus Serine Protease Inhibitors, VX-950 and BILN 2061: Structural Analysis Indicates Different Resistance Mechanisms,” Journal of Biological Chemistry, 279(17); pp. 17508-17514 (2004)]. The replicon cells were propagated in DMEM supplemented with 10% FBS, 2 mM L-glutamine, nonessential amino acids, and 250 μg/mL G418. The cells were split twice per week in fresh media upon reaching confluence. There are approximately 200-300 copies of HCV RNA per 24-2 replicon cell.
(§1) HCV replicon RNA from cells was measured using the Quantigene Discover XL kit (Panomics Inc., Fremont Calif.) as per the manufacturer's instructions. Briefly, compound-treated replicon cells were lysed and immobilized on to capture plates using HCV specific oligonucleotides (designed based on the 5′ UTR region of HCV 1b genome sequence AJ238799 in the GenBank database) over night and the relative amounts of captured RNA was measured using oligonucleotide probe sets as per the manufacturer's instructions.
(§2) On the day prior to the assay, 10,000 replicon cells were plated per well of a 96-well plate and allowed to attach and grow overnight in DMEM (Invitrogen, Carlsbad, Calif.) supplemented with 10% heat-inactivated FBS (JRH Biosciences, Lenexa, Kans.), 2 mM L-glutamine (Invitrogen), nonessential amino acids (Invitrogen) and 250 μg/ml G418 (Invitrogen). Next day, the medium was removed and antiviral agents that were serially diluted in DMEM containing 2% FBS and 0.5% DMSO (Sigma Chemical Co., St. Louis, Mo.) without G418, was added. The replicon cells were incubated with the antiviral agents for 48 h. HCV replicon RNA from cells was measured using the Quantigene Discover XL kit (Panomics Inc., Fremont Calif.) as per the manufacturer's instructions. Briefly, compound-treated replicon cells were lysed and immobilized onto capture plates using HCV specific oligonucleotides overnight and the relative amounts of captured RNA was measured using oligonucleotide probe sets as per the manufacturer's instructions. Unless indicated otherwise, each data point represents the average of three replicates. The IC50 is the concentration of the compound at which the HCV replicon RNA level in cells is reduced by 50% as compared to the untreated replicon cell controls. To monitor the effect of compounds on cell proliferation or cell viability, replicon cells were treated with serially diluted compounds for 48 h, after which cell viability was determined using a CellTiter Glo assay (Promega, Madison, Wis.). Each CC50 is derived from at least two replicates and is the concentration of the compound at which the number of viable cells is reduced by 50% as compared to untreated cell controls. The IC50 and CC50 was determined using 4-parameter curve fitting in the SoftMax Pro program (Molecular Devices, Sunnyvale, Calif.).
The effects of drug-drug combinations were evaluated using the Bliss independence model [W. R. Greco et al., “The search for synergy: a critical review from a response surface perspective,” Pharmacol. Rev., 47, pp. 331-385 (1995)]. The experimental data were analyzed by using MacSynergy, a three-dimensional analytical method developed by Prichard and Shipman [M. N. Prichard and C. […]

[2] = test system: HCV replicon Wild Type (mADE); assay: 2-Day HCV Replicon IC50 Assay, wild type replicon; type: cell-based; conditions: for IC50: Hepatitis C virus; for Fold Change: ratio of IC50 to Wild type IC50 for the same inhibitor
Method: (§3) Huh-7 cells were propagated in Dulbecco's modified Eagle's medium (DMEM, JRH Biosciences, Lenexa, Kans.) supplemented with 10% heat-inactivated FBS (fetal bovine serum), 2 mM L-glutamine, and nonessential amino acids (JRH). The cells were transfected with an in vitro transcribed HCV replicon RNA identical to replicon 1377neo/NS3-3′/wt as described by Lohmann et al. (1999). Stable cell clones were selected and maintained in the presence of 250 μg/mL G418 (Invitrogen, Carlsbad, Calif.). […] The HCV NS3 protease variant replicons were constructed in the background of the mADE wild-type replicon as described previously [Chao Lin et al., “In Vitro Resistance Studies of Hepatitis C Virus Serine Protease Inhibitors, VX-950 and BILN 2061: Structural Analysis Indicates Different Resistance Mechanisms,” Journal of Biological Chemistry, 279(17); pp. 17508-17514 (2004)]. The replicon cells were propagated in DMEM supplemented with 10% FBS, 2 mM L-glutamine, nonessential amino acids, and 250 μg/mL G418. The cells were split twice per week in fresh media upon reaching confluence. There are approximately 200-300 copies of HCV RNA per 24-2 replicon cell.
as §1, §2
(§4) The sensitivity of NS3 protease variants to ribavirin and interferon was assessed in a 2-Day HCV Replicon IC50 Assay.

[3] = test system: HCV NS3 protease variant replicon R155K; assay: microbe, parasite or virus in culture; type: cell-based; conditions: for IC50: Hepatitis C virus; for Fold Change: R155K, ratio of mutant IC50 to Wild type IC50 for the same inhibitor
Method: as §3, §1, §2, §4

[4] = test system: HCV NS3 protease variant replicon T54A; assay: microbe, parasite or virus in culture; type: cell-based; conditions: for IC50: Hepatitis C virus; for Fold Change: T54A, ratio of mutant IC50 to Wild type IC50 for the same inhibitor
Method: as §3, §1, §2, §4

[5] = test system: HCV NS3 protease variant replicon V36A; assay: microbe, parasite or virus in culture; type: cell-based; conditions: for IC50: Hepatitis C virus; for Fold Change: V36A, ratio of mutant IC50 to Wild type IC50 for the same inhibitor
Method: as §3, §1, §2, §4

[6] = test system: HCV NS3 protease variant replicon V36M+R155K; assay: microbe, parasite or virus in culture; type: cell-based; conditions: for Fold Change: V36M-R155K, ratio of mutant IC50 to Wild type IC50 for the same inhibitor
Method: as §3, §1, §2, §4

[7] = test system: HCV NS3 protease variant replicon V36M; assay: microbe, parasite or virus in culture; type: cell-based; conditions: for IC50: Hepatitis C virus; for Fold Change: V36M, ratio of mutant IC50 to Wild type IC50 for the same inhibitor
Method: as §3, §1, §2, §4

[8] = test system: HCV NS3 protease variant replicon A156T; assay: 2-Day HCV Replicon IC50 Assay, A156T; type: cell-based; conditions: for Fold Change: A156T, ratio of mutant IC50 to Wild type IC50 for the same inhibitor; for IC50: Hepatitis C virus, read-out: Avg. IC50 ± STDEV
Method: as §3, §1, §2, §4

[9] = test system: HCV NS3 protease variant replicon A156V; assay: 2-Day HCV Replicon IC50 Assay, A156V; type: cell-based; conditions: for Fold Change: A156V, ratio of mutant IC50 to Wild type IC50 for the same inhibitor; for IC50: Hepatitis C virus, read-out: Avg. IC50 ± STDEV
Method: as §3, §1, §2, §4

[10] = test system: HCV NS3 protease variant replicon R155M; assay: microbe, parasite or virus in culture; type: cell-based; conditions: for Fold Change: R155M, ratio of mutant IC50 to Wild type IC50 for the same inhibitor
Method: as §3, §1, §2, §4

[11] = test system: HCV NS3 protease variant replicon R155T; assay: microbe, parasite or virus in culture; type: cell-based; conditions: for Fold Change: R155T, ratio of mutant IC50 to Wild type IC50 for the same inhibitor
Method: as §3, §1, §2, §4

[12] = test system: HCV NS3 protease variant replicon V36A-R155K; assay: microbe, parasite or virus in culture; type: cell-based; conditions: for Fold Change: V36A-R155K, ratio of mutant IC50 to Wild type IC50 for the same inhibitor
Method: as §3, §1, §2, §4

[13] = test system: HCV NS3 protease variant replicon V36A-R155T; assay: microbe, parasite or virus in culture; type: cell-based; conditions: for Fold Change: V36A-R155T, ratio of mutant IC50 to Wild type IC50 for the same inhibitor
Method: as §3, §1, §2, §4

[14] = test system: HCV NS3 protease variant replicon V36M-R155T; assay: microbe, parasite or virus in culture; type: cell-based; conditions: for Fold Change: V36M-R155T, ratio of mutant IC50 to Wild type IC50 for the same inhibitor
Method: as §3, §1, §2, §4

[15] = test system: HCV NS3 protease variant replicon A156T; conditions: A156T replicon versus wild-type (Lin et al., 2005); cited from earlier work
[16] = test system: HCV NS3 protease variant replicon A156V; conditions: A156V replicon versus wild-type (Lin et al., 2005); cited from earlier work
[17] = Table 8, Wild Type replicon, read-out: Avg. IC50 ± STDEV
[18] = Hepatitis C virus, read-out: Avg. IC50

Compound | IC50 [1] | IC50 [2, 17] | Fold Change ([2]; Wild Type replicon) | IC50 ([3]; read-out: Avg. IC50 ± STDEV) | Fold Change [3] | IC50 ([4]; read-out: Avg. IC50 ± STDEV) | Fold Change [4] | IC50 ([5]; read-out: Avg. IC50 ± STDEV) | Fold Change [5] | Fold Change [6] | IC50 ([7]; read-out: Avg. IC50 ± STDEV) | Fold Change [7] | Fold Change [8] | IC50 [8] | Fold Change [9] | IC50 [9] | Fold Change [10] | Fold Change [11] | Fold Change [12] | Fold Change [13] | also measured
CCN(CC)C1CCN(C(=O)Cn2c(-c3ccc(Cl)cc3)c(C3CCCCC3)c3ccc(C(=O)O)cc32)CC1 [Formula III] | 0.7 µM | 0.313 ± 0.032 µM | 1.0 | 0.39 ± 0.065 µM | 1.2 | 0.337 ± 0.045 µM | 1.1 | 0.369 ± 0.066 µM | 1.2 | 1.3 | 0.227 ± 0.064 µM | 0.7 | 1.0 | 0.306 ± 0.01 µM | 0.9 | 0.297 ± 0.066 µM | – | – | – | – | –
O=c1c(C2=NS(=O)(=O)c3ccccc3N2)c(O)c2ccccc2n1NC1CCC1 [Formula II] | 1.04 µM | 0.347 ± 0.108 µM | 1.0 | 0.45 ± 0.023 µM | 1.3 | 0.564 ± 0.111 µM | 1.6 | 0.571 ± 0.093 µM | 1.6 | 1.7 | 0.36 ± 0.164 µM | 1.0 | 0.9 | 0.326 ± 0.003 µM | 0.8 | 0.264 ± 0.045 µM | – | – | – | – | –
C[C@@]1(O)[C@H](O)[C@@H](CO)O[C@H]1n1ccc(N)nc1=O [Formula I] | 7.21 µM | 1.34 ± 0.473 µM | 1.0 | 2.37 ± 0.678 µM | 1.8 | 1.98 ± 0.388 µM | 1.5 | 2.15 ± 0.874 µM | 1.6 | 2.0 | 1.59 ± 0.361 µM | 1.2 | 0.9 | 1.27 ± 0.185 µM | 1.0 | 1.31 ± 0.216 µM | – | – | – | – | –
NC(=O)c1ncn([C@@H]2O[C@H](CO)[C@@H](O)[C@H]2O)n1 [Ribavirin, 1-beta-D-ribofuranosyl-1H-1,2,4-triazole-3-carboxamide, reference compound] | – | – | 1.0 | – | 0.6 | – | 0.4 | – | 0.7 | 0.7 | – | 0.6 | – | – | – | – | 0.7 | 0.6 | 0.6 | 0.7 | IC50 ([2]; Ribavirin, Wild Type (mADE) replicon, read-out: Avg. IC50): 57.8 ± 17.6 µM; IC50 ([3]; read-out: Avg. IC50): 37.2 ± 17 µM; IC50 [10, 18]: 38.9 ± 4.7 µM; IC50 [11, 18]: 32.4 ± 17.7 µM; IC50 ([4]; read-out: Avg. IC50): 21.7 ± 11.1 µM; IC50 [12, 18]: 35.8 ± 2.2 µM; IC50 [13, 18]: 41.7 ± 21.6 µM; IC50 ([5]; read-out: Avg. IC50): 43.1 ± 21.3 µM; IC50 [6, 18]: 40.6 ± 6.1 µM; IC50 [14, 18]: 36.4 ± 1.3 µM; Fold Change [14]: 0.6; IC50 ([7]; read-out: Avg. IC50): 32.9 ± 17.8 µM; sensitivity of replicon [15]: comparable to the wild-type; sensitivity of replicon [16]: comparable to the wild-type
IFN-α | – | – | 1.0 | – | 1.3 | – | 0.3 | – | 0.9 | 0.9 | – | 1.0 | – | – | – | – | 0.4 | 0.4 | 0.6 | 0.3 | Avg. IC50 ([2]; IFN-α, Wild Type (mADE) replicon): 11.6 ± 1.1 units/ml; Avg. IC50 ([3]; IFN-α, R155K replicon): 15.2 ± 12.3 units/ml; Avg. IC50 ([10]; IFN-α, R155M replicon): 4.9 ± 1.0 units/ml; Avg. IC50 ([11]; IFN-α, R155T replicon): 4.8 ± 3.3 units/ml; Avg. IC50 ([4]; IFN-α, T54A replicon): 3.9 ± 0.5 units/ml; Avg. IC50 ([12]; IFN-α, V36A-R155K replicon): 6.8 ± 0.5 units/ml; Avg. IC50 ([13]; IFN-α, V36A-R155T replicon): 3.9 ± 2.1 units/ml; Avg. IC50 ([5]; IFN-α, V36A replicon): 10.3 ± 6.0 units/ml; Avg. IC50 ([6]; IFN-α, V36M-R155K replicon): 10.1 ± 5.9 units/ml; Avg. IC50 ([14]; IFN-α, V36M-R155T replicon): 3.1 ± 0.2 units/ml; Fold Change [14]: 0.3; Avg. IC50 ([7]; IFN-α, V36M replicon): 11.3 ± 5.9 units/ml; sensitivity of replicon [15]: comparable to the wild-type; sensitivity of replicon [16]: comparable to the wild-type
